Assay results published in PubChem BioAssay (NCI).
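Method: 48-hour compound exposure of cells in 96-well plates, five concentrations, linear interpolation of endpoints. TGI denotes the concentration required for complete inhibition of growth.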

Tests used:
Test in all cases: NCI tumour cell line growth inhibition, 48 h
SF-539 CNS = test system: SF-539 CNS
SN12C renal = test system: SN12C renal
LOX IMVI melanoma = test system: LOX IMVI melanoma
SNB-78 CNS = test system: SNB-78 CNS
ACHN renal = test system: ACHN renal
HL-60(TB) leukemia = test system: HL-60(TB) leukemia
SK-MEL-28 melanoma = test system: SK-MEL-28 melanoma
786-0 renal = test system: 786-0 renal
CCRF-CEM leukemia = test system: CCRF-CEM leukemia
HCT-15 colon = test system: HCT-15 colon
M19-MEL melanoma = test system: M19-MEL melanoma
NCI-H522 lung = test system: NCI-H522 lung
RXF-631 renal = test system: RXF-631 renal
SNB-75 CNS = test system: SNB-75 CNS
CAKI-1 renal = test system: CAKI-1 renal
MOLT-4 leukemia = test system: MOLT-4 leukemia
OVCAR-8 ovarian = test system: OVCAR-8 ovarian
EKVX NSCLC = test system: EKVX NSCLC
HOP-62 NSCLC = test system: HOP-62 NSCLC
SK-OV-3 ovarian = test system: SK-OV-3 ovarian
DMS 273 small cell lung = test system: DMS 273 small cell lung
RPMI-8226 leukemia = test system: RPMI-8226 leukemia
KM12 colon = test system: KM12 colon
HCT-116 colon = test system: HCT-116 colon
SW-620 colon = test system: SW-620 colon
OVCAR-5 ovarian = test system: OVCAR-5 ovarian
SNB-19 CNS = test system: SNB-19 CNS
XF 498 CNS = test system: XF 498 CNS
KM20L2 colon = test system: KM20L2 colon
HOP-92 NSCLC = test system: HOP-92 NSCLC
A549 NSCLC = test system: A549 NSCLC
DLD-1 colon = test system: DLD-1 colon
NCI-H460 lung = test system: NCI-H460 lung
MALME-3M melanoma = test system: MALME-3M melanoma
HCC-2998 colon = test system: HCC-2998 colon
RXF 393 renal = test system: RXF 393 renal
SF-295 CNS = test system: SF-295 CNS
SR leukemia = test system: SR leukemia
OVCAR-3 ovarian = test system: OVCAR-3 ovarian
OVCAR-4 ovarian = test system: OVCAR-4 ovarian
UO-31 renal = test system: UO-31 renal
A498 renal = test system: A498 renal
TK-10 renal = test system: TK-10 renal
K-562 leukemia = test system: K-562 leukemia
SF-268 CNS = test system: SF-268 CNS
NCI-H23 lung = test system: NCI-H23 lung
HT29 colon = test system: HT29 colon
SK-MEL-2 melanoma = test system: SK-MEL-2 melanoma
SK-MEL-5 melanoma = test system: SK-MEL-5 melanoma
U251 CNS = test system: U251 CNS
M14 melanoma = test system: M14 melanoma
IGROV1 ovarian = test system: IGROV1 ovarian
UACC-62 melanoma = test system: UACC-62 melanoma
UACC-257 melanoma = test system: UACC-257 melanoma
LXFL 529 NSCLC = test system: LXFL 529 NSCLC
COLO 205 colon = test system: COLO 205 colon
NCI-H226 lung = test system: NCI-H226 lung
DMS 114 small cell lung = test system: DMS 114 small cell lung

Measured: TGI

CC(=O)/C=C\C(=O)NNS(=O)(=O)c1ccc(C)cc1
not listed: DMS 114 small cell lung
> 100 µM: all other assays above

CC(=O)NC1C(=O)CC(c2ccccc2)N(C)C1c1ccccc1 (stereo not drawn)
not listed: RPMI-8226 leukemia | XF 498 CNS
> 100 µM: all other assays above
